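How tested: cells in 96-well plates exposed to compound for 48 hours at five concentrations. GI50 marks 50% less growth. TGI marks complete inhibition of growth.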
How the values were obtained:
Test in all cases: growth of human tumour cells (NCI), 48 h
PC-3 prostate = system: PC-3 prostate
HOP-62 NSCLC = system: HOP-62 NSCLC
UACC-257 melanoma = system: UACC-257 melanoma
MOLT-4 leukemia = system: MOLT-4 leukemia
UO-31 renal = system: UO-31 renal
EKVX NSCLC = system: EKVX NSCLC
OVCAR-3 ovarian = system: OVCAR-3 ovarian
MDA-MB-231 breast = system: MDA-MB-231 breast
RPMI-8226 leukemia = system: RPMI-8226 leukemia
NCI-H522 lung = system: NCI-H522 lung
SW-620 colon = system: SW-620 colon
HT29 colon = system: HT29 colon
UACC-62 melanoma = system: UACC-62 melanoma
OVCAR-8 ovarian = system: OVCAR-8 ovarian
NCI-H226 lung = system: NCI-H226 lung
SNB-75 CNS = system: SNB-75 CNS
U251 CNS = system: U251 CNS
CCRF-CEM leukemia = system: CCRF-CEM leukemia
SK-OV-3 ovarian = system: SK-OV-3 ovarian
SN12C renal = system: SN12C renal
SR leukemia = system: SR leukemia
OVCAR-5 ovarian = system: OVCAR-5 ovarian
A549 NSCLC = system: A549 NSCLC
HL-60(TB) leukemia = system: HL-60(TB) leukemia
K-562 leukemia = system: K-562 leukemia
HCT-116 colon = system: HCT-116 colon
MCF7 breast = system: MCF7 breast
SK-MEL-5 melanoma = system: SK-MEL-5 melanoma
OVCAR-4 ovarian = system: OVCAR-4 ovarian
SK-MEL-28 melanoma = system: SK-MEL-28 melanoma
SF-539 CNS = system: SF-539 CNS
NCI-H460 lung = system: NCI-H460 lung
MDA-MB-435 = system: MDA-MB-435
SK-MEL-2 melanoma = system: SK-MEL-2 melanoma
A498 renal = system: A498 renal
M14 melanoma = system: M14 melanoma
COLO 205 colon = system: COLO 205 colon
786-0 renal = system: 786-0 renal
NCI/ADR-RES ovarian = system: NCI/ADR-RES ovarian
ACHN renal = system: ACHN renal
IGROV1 ovarian = system: IGROV1 ovarian
NCI-H23 lung = system: NCI-H23 lung
RXF 393 renal = system: RXF 393 renal
SNB-19 CNS = system: SNB-19 CNS
CAKI-1 renal = system: CAKI-1 renal
HOP-92 NSCLC = system: HOP-92 NSCLC
HCC-2998 colon = system: HCC-2998 colon
BT-549 breast = system: BT-549 breast
KM12 colon = system: KM12 colon
DU-145 prostate = system: DU-145 prostate
SF-295 CNS = system: SF-295 CNS
MALME-3M melanoma = system: MALME-3M melanoma
LOX IMVI melanoma = system: LOX IMVI melanoma
SF-268 CNS = system: SF-268 CNS
HS 578T breast = system: HS 578T breast

**Q.** For `CSc1nc2c(c(=O)n1C)N=C(c1ccc([N+](=O)[O-])cc1)CC(c1ccccc1)N2` (stereo not drawn), which TGI (PC-3 prostate) is on record?
**A.** > 100 µM

**Q.** What about the TGI (HOP-62 NSCLC) of the same compound?
**A.** > 100 µM

**Q.** And the TGI (UACC-257 melanoma)?
**A.** > 100 µM

**Q.** What about the TGI (MOLT-4 leukemia) of the same compound?
**A.** > 100 µM

**Q.** What about the TGI (UO-31 renal) of the same compound?
**A.** > 100 µM

**Q.** What about the TGI (EKVX NSCLC) of the same compound?
**A.** > 100 µM

**Q.** What about the TGI (OVCAR-3 ovarian) of the same compound?
**A.** > 100 µM

**Q.** And the TGI (MDA-MB-231 breast)?
**A.** > 100 µM

**Q.** And the TGI (RPMI-8226 leukemia)?
**A.** > 100 µM

**Q.** And the TGI (NCI-H522 lung)?
**A.** > 100 µM

**Q.** What about the TGI (SW-620 colon) of the same compound?
**A.** > 100 µM

**Q.** And the TGI (HT29 colon)?
**A.** > 100 µM

**Q.** And the TGI (UACC-62 melanoma)?
**A.** > 100 µM

**Q.** And the TGI (OVCAR-8 ovarian)?
**A.** > 100 µM

**Q.** What about the TGI (NCI-H226 lung) of the same compound?
**A.** > 100 µM

**Q.** What about the TGI (SNB-75 CNS) of the same compound?
**A.** > 100 µM

**Q.** What about the TGI (U251 CNS) of the same compound?
**A.** > 100 µM

**Q.** And the TGI (CCRF-CEM leukemia)?
**A.** > 100 µM

**Q.** What about the TGI (SK-OV-3 ovarian) of the same compound?
**A.** > 100 µM

**Q.** And the TGI (SN12C renal)?
**A.** > 100 µM

**Q.** What about the TGI (SR leukemia) of the same compound?
**A.** > 100 µM

**Q.** And the TGI (OVCAR-5 ovarian)?
**A.** > 100 µM

**Q.** And the TGI (A549 NSCLC)?
**A.** > 100 µM

**Q.** And the TGI (HL-60(TB) leukemia)?
**A.** 65.9 µM

**Q.** And the TGI (K-562 leukemia)?
**A.** > 100 µM

**Q.** What about the TGI (HCT-116 colon) of the same compound?
**A.** > 100 µM

**Q.** What about the TGI (MCF7 breast) of the same compound?
**A.** > 100 µM

**Q.** And the TGI (SK-MEL-5 melanoma)?
**A.** > 100 µM

**Q.** And the TGI (OVCAR-4 ovarian)?
**A.** > 100 µM

**Q.** And the TGI (SK-MEL-28 melanoma)?
**A.** > 100 µM

**Q.** And the TGI (SF-539 CNS)?
**A.** > 100 µM

**Q.** And the TGI (NCI-H460 lung)?
**A.** > 100 µM

**Q.** What about the TGI (MDA-MB-435) of the same compound?
**A.** > 100 µM

**Q.** What about the TGI (SK-MEL-2 melanoma) of the same compound?
**A.** > 100 µM

**Q.** What about the TGI (A498 renal) of the same compound?
**A.** > 100 µM

**Q.** And the TGI (M14 melanoma)?
**A.** > 100 µM

**Q.** And the TGI (COLO 205 colon)?
**A.** > 100 µM

**Q.** And the TGI (786-0 renal)?
**A.** > 100 µM

**Q.** And the TGI (NCI/ADR-RES ovarian)?
**A.** > 100 µM

**Q.** What about the TGI (ACHN renal) of the same compound?
**A.** > 100 µM

**Q.** What about the TGI (IGROV1 ovarian) of the same compound?
**A.** > 100 µM

**Q.** What about the TGI (NCI-H23 lung) of the same compound?
**A.** > 100 µM

**Q.** What about the TGI (RXF 393 renal) of the same compound?
**A.** > 100 µM

**Q.** What about the TGI (SNB-19 CNS) of the same compound?
**A.** > 100 µM

**Q.** What about the TGI (CAKI-1 renal) of the same compound?
**A.** > 100 µM

**Q.** What about the TGI (HOP-92 NSCLC) of the same compound?
**A.** > 100 µM

**Q.** And the TGI (HCC-2998 colon)?
**A.** > 100 µM

**Q.** What about the TGI (BT-549 breast) of the same compound?
**A.** > 100 µM

**Q.** And the TGI (KM12 colon)?
**A.** > 100 µM

**Q.** What about the TGI (DU-145 prostate) of the same compound?
**A.** > 100 µM

**Q.** What about the TGI (SF-295 CNS) of the same compound?
**A.** > 100 µM

**Q.** What about the TGI (MALME-3M melanoma) of the same compound?
**A.** > 100 µM

**Q.** And the TGI (LOX IMVI melanoma)?
**A.** > 100 µM

**Q.** With `CCCCCCCc1n(Cc2ccc3ccccc3c2)c2ccccc2[n+]1Cc1ccc2ccccc2c1` as the compound, how does the GI50 (SK-OV-3 ovarian) read?
**A.** 0.87 µM

**Q.** And the TGI (SK-OV-3 ovarian)?
**A.** 2.28 µM

**Q.** What about the GI50 (HL-60(TB) leukemia) of the same compound?
**A.** 0.186 µM

**Q.** And the TGI (HL-60(TB) leukemia)?
**A.** 0.569 µM

**Q.** And the GI50 (SF-268 CNS)?
**A.** 0.345 µM

**Q.** What about the TGI (SF-268 CNS) of the same compound?
**A.** 1.49 µM

**Q.** And the GI50 (HS 578T breast)?
**A.** 1.2 µM

**Q.** And the TGI (HS 578T breast)?
**A.** 3.67 µM

**Q.** What about the GI50 (HOP-92 NSCLC) of the same compound?
**A.** 0.163 µM

**Q.** What about the TGI (HOP-92 NSCLC) of the same compound?
**A.** 0.67 µM

— PubChem BioAssay (NCI)
